Source: ChEMBL document CHEMBL1151146, “Starfish Saponins, Part 43. Structures of Two New Sulfated Steroidal Fucofuranosides (Imbricatosides A and B) and Six New Polyhydroxysteroids from the Starfish Dermasterias imbricata” (J Nat Prod, 1990)
Values belong to the compound of their own block, whether it stands above or below them. Calls of active or inactive are those of the source. The calls are words filed in the database; no cut-off is given here.

Assays:
[1] = test system: Cladosporium cucumerinum; assay: Antimicrobial activity against Cladosporium cucumerinum at 5 ug by TLC-based direct bioautography; assay type: functional, organism-based
[2] = test system: Cladosporium cucumerinum; assay: Antimicrobial activity against Cladosporium cucumerinum at 3 ug by TLC-based direct bioautography; assay type: functional, organism-based
[3] = test system: Cladosporium cucumerinum; assay: Antimicrobial activity against Cladosporium cucumerinum at <1 ug by TLC-based direct bioautography; assay type: functional, organism-based
[4] = Inhibition of cell division of fertilized sea urchin eggs; design: species or system Egg; conditions: echinoidea

Compound: C[C@H](CO)C/C=C/[C@@H](C)[C@H]1C[C@@H](O)[C@@H]2[C@]1(C)CC[C@@H]1[C@@]3(C)CC[C@H](O)C[C@@H]3[C@@H](O)C[C@]12O
Activity [1]: Active

Compound: CC(C)[C@@H](O)CC[C@@H](C)[C@H]1C[C@@H](O)[C@@H]2[C@]1(C)CC[C@@H]1[C@@]3(C)CC[C@H](O)C[C@@H]3[C@@H](O)C[C@]12O
Activity [2]: Active

Activity [4]: Active
Compound: CC(C)[C@@H](O)/C=C/[C@@H](C)[C@H]1C[C@@H](O)[C@@H]2[C@]1(C)CC[C@@H]1[C@@]3(C)CC[C@H](O)C[C@@H]3[C@@H](O)C[C@]12O
Activity [3]: Active
